Counter-ions that a name gives are not always drawn. Like-named read-outs stand apart in the source and are kept apart here.
Legend:
[1] = target: Na+, K+-ATPase (Canis lupus familiaris, UniProt P50997); experiment: biochemical; parameters: species or system dog
[2] = test system: anesthetized guinea-pig; experiment: Inotropic effect and lethal dose, slow intravenous infusion (over 90 minutes) in anesthetized guinea-pig; details: for ED80 / ED (max) / Emax: Cavia porcellus, iv, 1.5 h; for ED80: read-out: ED80 (inotropic potency, dose increasing +dP/dTmax by 80%); for ED (max): read-out: EDmax (dose inducing maximum positive inotropic effect); for Emax: read-out: Emax % increase in +dP/dTmax; for Maximum dose infused: maximum dose infused in the survived animals
[3] = read-out: Na+, K+-ATPase Inhibition IC50
[4] = dog kidney enzyme, read-out: Na+, K+-ATPase Inhibition IC50

Work on “3α-(3-Aminopropylthio)-6-(E)-hydroxyiminoandrostane-17-one hemifumarate [I-dw]” yielded an IC50 [1, 3] of 850 nM.
`CC12CCC3C(CC(C#N)C4CC(=NOCCN)CCC43C)C1CCC2=O` (mixture of isomers) [I-ac, (E,Z) 3-(2-Aminoethoxyimino)-6α-cyanoandrostan-17-one fumarate] was tested, and the IC50 [1, 4] was 1100 nM.
Compound `C[C@]12CC[C@H]3[C@@H](C[C@@H](C#N)[C@@]4(O)CC(=NOCCN)CC[C@]34C)[C@@H]1CCC2=O` (mixture of isomers) [I-ae, (E,Z) 3-(2-Aminoethoxyimino)-5α-hydroxy-6β-cyanoandrostane-17-one fumarate] has an IC50 [1, 4] of 11000 nM.
For `CC12CCC3C(CC4(OCCO4)C4CC(=NOCCN)CCC34C)C1CCC2=O` (mixture of isomers) [I-ag, (E,Z) 3-(2-Aminoethoxyimino)-6-(2-spiro-1,3-dioxolane)androstane-17-one fumarate], the IC50 [1, 4] was 5400 nM.
`COCC1CC2C3CCC(=O)C3(C)CCC2C2(C)CCC(=NOCCN)CC12` (mixture of isomers) [I-ak, (E,Z) 3-(2-Aminoethoxyimino)-6β-methoxymethylandrostan-17-one hydrochloride] was tested, and the IC50 [1, 4] was 3000 nM.
For `CC12CCC3C(CC(C(=O)O)C4CC(=NOCCN)CCC43C)C1CCC2=O` (mixture of isomers) [I-ar, (E,Z) 3-(2-Aminoethoxyimino)-6α-carboxyandrostan-17-one hydrochloride], the IC50 [1, 4] was 16000 nM.
For `CC12CCC3C(CC(C(N)=O)C4CC(=NOCCN)CCC43C)C1CCC2=O` (mixture of isomers) [I-at, (E,Z) 3-(2-Aminoethoxyimino)-6α-carbamoylandrostan-17-one fumarate], the IC50 [1, 3] was 630 nM.
In the case of `COC(=O)C1CC2C3CCC(=O)C3(C)CCC2C2(C)CCC(=NOCCN)CC12` (mixture of isomers) [I-au, (E,Z) 3-(2-Aminoethoxyimino)-6α-methoxycarbonylandrostan-17-one hydrochloride], the IC50 [1, 4] is reported as 410 nM.
For `CCON=C1CC2C3CCC(=O)C3(C)CCC2C2(C)CCC(=NOCCN)CC12` (mixture of isomers) [I-ax, (E,Z)-3-(2-Aminoethoxyimino)-6-(E)-ethoxyiminoandrostan-17-one hydrochloride], the IC50 [1, 4] was 1700 nM.
`C[C@]12CCC(=NOCCN)C[C@@H]1[C@]1(CO1)C[C@@H]1[C@@H]2CC[C@]2(C)C(=O)CC[C@@H]12` (mixture of isomers) [I-bb, (E,Z)-3-(2-Aminoethoxyimino)androstane-6(S)-(spiro-2′-oxirane)-17-one hydrochloride] was tested, and the IC50 [1, 4] was 870 nM.
`CC(=O)N[C@H]1C[C@@H]2[C@H](CC[C@]3(C)C(=O)CC[C@@H]23)[C@@]2(C)CCC(=NOCCN)C[C@H]12` (mixture of isomers) [I-bf, (E,Z) 3-(2-Aminoethoxyimino)-6α-acetamidoandrostan-17-one hydrochloride] gave an IC50 [1, 4] of 45000 nM.
Compound `C/C=C1\C[C@@H]2[C@H](CC[C@]3(C)C(=O)CC[C@@H]23)[C@@]2(C)CCC(=NOCCN)C[C@H]12` (mixture of isomers) [I-bg, (E,Z) 3-(2-Aminoethoxyimino)-6-(E)-ethylidenandrostan-17-one hydrochloride] has an IC50 ([1]; Na+, K+-ATPase Inhibition IC50) of 1100 nM.
`C[C@]12CCC(=NOCCN)C[C@@H]1C(=C(F)F)C[C@@H]1[C@@H]2CC[C@]2(C)C(=O)CC[C@@H]12` (mixture of isomers) [I-bh, (E,Z) 3-(2-Aminoethoxyimino)-6-difluoromethyleneandrostan-17-one hydrochloride] showed an IC50 ([1]; Na+, K+-ATPase Inhibition IC50) of 190 nM.
For `CC12CCC3C(CC(=CCO)C4CC(=NOCCN)CCC43C)C1CCC2=O` (mixture of isomers) [I-bj, (E,Z) 3-(2-Aminoethoxyimino)-6-(E)-[2-hydroxyethylidene]androstan-17-one hydrochloride], the IC50 ([1]; Na+, K+-ATPase Inhibition IC50) was 770 nM.
With `COC(=O)C=C1CC2C3CCC(=O)C3(C)CCC2C2(C)CCC(=NOCCN)CC12` (mixture of isomers) [I-bk, Methyl [3-(E,Z)-(2-aminoethoxyimino)-17-oxoandrostane-6-(E)-ylidene]-acetate hydrochloride] the IC50 [1, 4] was 64000 nM.
Work on `CC12CCC3C(CC(CNC=O)C4CC(=NOCCN)CCC43C)C1CCC2=O` (mixture of isomers) [I-bn, (E,Z) 3-(2-Aminoethoxyimino)-6α-formamidomethylandrostane-17-one hydrochloride] yielded an IC50 [1, 4] of 5100 nM.
`C=CCON=C1CC2CC(=NOCCN)CCC2(C)C2CCC3(C)C(=O)CCC3C12` (mixture of isomers) [I-bu, (E,Z)-3-(2-Aminoethoxyimino)-7-(E)-allyloxyiminoandrostan-17-one fumarate] showed an IC50 [1, 4] of 3800 nM.
`C=C1CC2CC(=NOCCN)CCC2(C)C2CCC3(C)C(=O)CCC3C12` (mixture of isomers) [I-bx, (E,Z) 3-(2-Aminoethoxyimino)-7-methyleneandrostane-17-one hydrochloride] was tested, and the IC50 ([1]; Na+, K+-ATPase Inhibition IC50) was 400 nM.
`C[C@H]1C[C@H]2CC(=NOCCN)CC[C@]2(C)[C@H]2CC[C@]3(C)C(=O)CC[C@H]3[C@H]12` (mixture of isomers) [I-by, (E,Z) 3-(2-Aminoethoxyimino)-7β-methylandrostane-17-dione hydrochloride] gave an IC50 ([1]; Na+, K+-ATPase Inhibition IC50) of 640 nM.
Compound `C[C@]12CCC(=NOCCN)C[C@@H]1C[C@@H](CO)[C@@H]1[C@@H]2CC[C@]2(C)C(=O)CC[C@@H]12` (mixture of isomers) [I-bz, (E,Z) 3-(2-Aminoethoxyimino)-7α-hydroxymethylandrostane-17-one hydrochloride] has an IC50 [1, 4] of 1100 nM.
For `C[C@]12CCC(=NOCCN)C[C@@H]1CC1(CC1)[C@@H]1[C@@H]2CC[C@]2(C)C(=O)CC[C@@H]12` (mixture of isomers) [I-cb, (E,Z) 3-(2-Aminoethoxyimino)-7-(spirocyclopropane)androstan-17-one hydrochloride], the IC50 [1, 4] was 130 nM.
With `CC12CCC3C(C(=O)C(CO)C4CC(=NOCCN)CCC43C)C1CCC2=O` (mixture of isomers) [I-cd, (E,Z) 3-(2-Aminoethoxyimino)-6α-hydroxymethylandrostane-7,17-dione hydrochloride] the IC50 [1, 4] was 12 nM.
`C=C1C[C@H]2[C@@H]3CCC(=O)[C@@]3(C)CC[C@@H]2[C@@]2(C)CCC(=NOCCNC)C[C@]12O` (mixture of isomers) [I-cg, (E,Z) 3-(2-N-Methylaminoethoxyimino)-5α-hydroxy-6-methylenandrostan-17-one hydrochloride] was tested, and the IC50 ([1]; Na+, K+-ATPase Inhibition IC50) was 2600 nM.
For `C=C1CC2C3CCC(=O)C3(C)CCC2C2(C)CCC(=NOCCCNC)CC12` (mixture of isomers) [I-ck, (E,Z) 3-(3-N-Methylaminopropoxyimino)-6-methyleneandrostane-17-one fumarate], the IC50 ([1]; Na+, K+-ATPase Inhibition IC50) was 570 nM.
In the case of `CNCCCON=C1CCC2(C)C(C1)C(C(=O)OC)CC1C3CCC(=O)C3(C)CCC12` (mixture of isomers) [I-cm, (Z,E) 3-(3-N-Methylaminopropoxyimino)-6α-methoxycarbonylandrostan-17-one hydrochloride], the IC50 [1, 4] is reported as 4000 nM.
In the case of `CNCCCON=C1CC[C@@]2(C)[C@H](C1)[C@@H](C(N)=O)C[C@@H]1[C@@H]2CC[C@]2(C)C(=O)CC[C@@H]12` (mixture of isomers) [I-cn, (Z,E) 3-(3-N-Methylaminopropoxyimino)-6α-carbamoylandrostan-17-one hydrochloride], the IC50 [1, 4] is reported as 1900 nM.
In the case of `CNCCCON=C1CCC2(C)C3CCC4(C)C(=O)CCC4C3CC3(CC3)C2C1` (mixture of isomers) [I-cp, (E,Z) 3-(3-N-Methylaminopropoxyimino)-6-(spirocyclopropane)androstan-17-one hydrochloride], the IC50 [1, 4] is reported as 1300 nM.
`CNCCCON=C1CC[C@]2(C)[C@H]3CC[C@]4(C)C(=O)CC[C@H]4[C@@H]3C/C(=N\O)[C@@]2(O)C1` (mixture of isomers) [I-cr, (E,Z) 3-(3-N-Methylaminopropoxyimino)-5α-hydroxy-6-(E)-hydroxyiminoandrostan-17-one hydrochloride] was tested, and the ED80 [2] was 1.21 µmol/kg, the ED (max) [2] was 11.8 µmol/kg and the Emax [2] was 180%. The “% decrease from Emax after 20 min from the end of the infusion” value ([2]; duration of the inotropic effect) was 47% and the Maximum dose infused [2] was 50.4 µmol/kg.
`C=C1C[C@H]2[C@@H]3CCC(=O)[C@@]3(C)CC[C@@H]2[C@@]2(C)CCC(=NOCCCNC)C[C@]12O` (mixture of isomers) [I-ct, (E,Z) 3-(3-N-Methylaminopropoxyimino)-5α-hydroxy-6-methylenandrostan-17-one hydrochloride] gave an IC50 ([1]; Na+, K+-ATPase Inhibition IC50) of 1400 nM.
In the case of `CNCCCON=C1CCC2(C)C(CC(=O)C3C4CCC(=O)C4(C)CCC32)C1` (mixture of isomers) [I-cu, (E,Z) 3-(3-N-Methylaminopropoxyimino)androstane-7,17-dione fumarate], the IC50 ([1]; Na+, K+-ATPase Inhibition IC50) is reported as 390 nM.
`CNCCCON=C1CCC2(C)C(C1)CC1(CC1)C1C3CCC(=O)C3(C)CCC12` (mixture of isomers) [I-cv, (E,Z) 3-(3-N-Methylaminopropoxyimino)-7-(spirocyclopropane)androstan-17-one hydrochloride] was tested, and the IC50 [1, 4] was 740 nM.
`CNCCCON=C1CC[C@@]2(C)[C@H](C1)C[C@H](CO)[C@@H]1[C@@H]2CC[C@]2(C)C(=O)CC[C@@H]12` (mixture of isomers) [I-cw, (E,Z) 3-(3-N-Methylaminopropoxyimino)-7β-hydroxymethylandrostane-17-one hydrochloride] showed an IC50 [1, 4] of 2300 nM.
`COCC1CC2CC(=NOCCN)CCC2(C)C2CCC3(C)C(=O)CCC3C12` (mixture of isomers) [I-ed, (E,Z) 3-(2-Aminoethoxyimino)-7α-methoxymethylandrostane-17-one hydrochloride] was tested, and the IC50 [1, 4] was 38000 nM.
`C[C@H]1O[C@@H](O[C@H]2[C@@H](O)C[C@H](O[C@H]3[C@@H](O)C[C@H](O[C@H]4CC[C@@]5(C)[C@H](CC[C@@H]6[C@@H]5C[C@@H](O)[C@]5(C)[C@@H](C7=CC(=O)OC7)CC[C@]65O)C4)O[C@@H]3C)O[C@@H]2C)C[C@H](O)[C@@H]1O` [digoxin, reference compound] gave an ED80 [2] of 0.29 µmol/kg, an ED (max) [2] of 0.65 µmol/kg and an Emax [2] of 158%. It also gave a Maximum dose infused [2] of 1.16 µmol/kg.

Reference: patent US8609644B2, “Amino derivatives of androstanes and androstenes as medicaments for cardiovascular disorders” (priority 2006, dated 2013)
